Values of other authors, collected in patent publication US11666686B2, “Amtimicrobial silicones” (WYNNVISION, LLC, priority 2020, dated 2023).

pKa: ~10
SMILES: CCCCCCCCCCCCCCN(C)C [C14, N,N-dimethyltetradecylamine]
